Results from ChEMBL document CHEMBL3112480, “γ-Alkylidene-γ-lactones and isobutylpyrrol-2(5H)-ones analogues to rubrolides as inhibitors of biofilm formation by gram-positive and gram-negative bacteria” (Bioorg Med Chem Lett, 2014).
In brackets after ≈: the same amount, converted by molar mass.

Legend:
[1] = test system: Pseudomonas aeruginosa; experiment: Antibacterial activity against Pseudomonas aeruginosa ATCC 27853 assessed as inhibition of biofilm formation after 20 hrs by crystal-violet staining method; assay type: functional, organism-based
[2] = test system: Staphylococcus aureus; experiment: Antibacterial activity against Staphylococcus aureus ATCC 25923 assessed as effect on planktonic growth at 2.73 ug/ml after 20 hrs relative to control; assay type: functional
[3] = test system: Staphylococcus epidermidis; experiment: Antibacterial activity against Staphylococcus epidermidis ATCC 35547 assessed as effect on planktonic growth at 0.34 ug/ml after 20 hrs relative to control; assay type: functional
[4] = test system: Streptococcus mutans; experiment: Antibacterial activity against Streptococcus mutans ATCC 25175 assessed as effect on planktonic growth at 5.5 ug/ml after 20 hrs relative to control; assay type: functional
[5] = test system: Streptococcus mutans; experiment: Antibacterial activity against Streptococcus mutans ATCC 25175 assessed as effect on planktonic growth at 10.9 ug/ml after 20 hrs relative to control; assay type: functional
[6] = test system: Staphylococcus aureus; experiment: Antibacterial activity against Staphylococcus aureus ATCC 25923 assessed as effect on planktonic growth at 1.37 ug/ml after 20 hrs relative to control; assay type: functional
[7] = test system: Pseudomonas aeruginosa; experiment: Antibacterial activity against Pseudomonas aeruginosa ATCC 27853 assessed as effect on planktonic growth at 0.68 ug/ml after 20 hrs relative to control; assay type: functional
[8] = test system: Streptococcus mutans; experiment: Antibacterial activity against Streptococcus mutans ATCC 25175 assessed as effect on planktonic growth at 1.37 ug/ml after 20 hrs relative to control; assay type: functional
[9] = test system: Staphylococcus epidermidis; experiment: Antibacterial activity against Staphylococcus epidermidis ATCC 35547 assessed as effect on planktonic growth at 10.9 ug/ml after 20 hrs relative to control; assay type: functional
[10] = test system: Pseudomonas aeruginosa; experiment: Antibacterial activity against Pseudomonas aeruginosa ATCC 27853 assessed as effect on planktonic growth at 1.37 ug/ml after 20 hrs relative to control; assay type: functional
[11] = test system: Staphylococcus epidermidis; experiment: Antibacterial activity against Staphylococcus epidermidis ATCC 35547 assessed as effect on planktonic growth at 1.37 ug/ml after 20 hrs relative to control; assay type: functional
[12] = test system: Pseudomonas aeruginosa; experiment: Antibacterial activity against Pseudomonas aeruginosa ATCC 27853 assessed as effect on planktonic growth at 2.73 ug/ml after 20 hrs relative to control; assay type: functional
[13] = test system: Streptococcus mutans; experiment: Antibacterial activity against Streptococcus mutans ATCC 25175 assessed as effect on planktonic growth at 21.9 ug/ml after 20 hrs relative to control; assay type: functional
[14] = test system: Staphylococcus aureus; experiment: Antibacterial activity against Staphylococcus aureus ATCC 25923 assessed as effect on planktonic growth at 0.34 ug/ml after 20 hrs relative to control; assay type: functional
[15] = test system: Staphylococcus aureus; experiment: Antibacterial activity against Staphylococcus aureus ATCC 25923 assessed as effect on planktonic growth at 43.8 ug/ml after 20 hrs relative to control; assay type: functional
[16] = test system: Pseudomonas aeruginosa; experiment: Antibacterial activity against Pseudomonas aeruginosa ATCC 27853 assessed as effect on planktonic growth at 0.34 ug/ml after 20 hrs relative to control; assay type: functional
[17] = test system: Staphylococcus epidermidis; experiment: Antibacterial activity against Staphylococcus epidermidis ATCC 35547 assessed as effect on planktonic growth at 87.5 ug/ml after 20 hrs relative to control; assay type: functional
[18] = test system: Staphylococcus aureus; experiment: Induction of biofilm formation in Staphylococcus aureus ATCC 25923 at 44 ug/ml after 20 hrs by crystal-violet staining method relative to control; assay type: organism-based
[19] = test system: Staphylococcus epidermidis; experiment: Antibacterial activity against Staphylococcus epidermidis ATCC 35547 assessed as effect on planktonic growth at 5.5 ug/ml after 20 hrs relative to control; assay type: functional
[20] = test system: Pseudomonas aeruginosa; experiment: Antibacterial activity against Pseudomonas aeruginosa ATCC 27853 assessed as effect on planktonic growth at 5.5 ug/ml after 20 hrs relative to control; assay type: functional
[21] = test system: Staphylococcus aureus; experiment: Antibacterial activity against Staphylococcus aureus ATCC 25923 assessed as effect on planktonic growth at 10.9 ug/ml after 20 hrs relative to control; assay type: functional
[22] = test system: Staphylococcus epidermidis; experiment: Antibacterial activity against Staphylococcus epidermidis ATCC 35547 assessed as inhibition of biofilm formation after 20 hrs by crystal-violet staining method; assay type: functional, organism-based
[23] = test system: Streptococcus mutans; experiment: Antibacterial activity against Streptococcus mutans ATCC 25175 assessed as effect on planktonic growth at 0.34 ug/ml after 20 hrs relative to control; assay type: functional
[24] = test system: Pseudomonas aeruginosa; experiment: Antibacterial activity against Pseudomonas aeruginosa ATCC 27853 assessed as effect on planktonic growth at 21.9 ug/ml after 20 hrs relative to control; assay type: functional
[25] = test system: Streptococcus mutans; experiment: Antibacterial activity against Streptococcus mutans ATCC 25175 assessed as effect on planktonic growth at 0.68 ug/ml after 20 hrs relative to control; assay type: functional
[26] = test system: Streptococcus mutans; experiment: Antibacterial activity against Streptococcus mutans ATCC 25175 assessed as effect on planktonic growth at 0.17 ug/ml after 20 hrs relative to control; assay type: functional
[27] = test system: Staphylococcus epidermidis; experiment: Antibacterial activity against Staphylococcus epidermidis ATCC 35547 assessed as effect on planktonic growth at 21.9 ug/ml after 20 hrs relative to control; assay type: functional
[28] = test system: Staphylococcus epidermidis; experiment: Antibacterial activity against Staphylococcus epidermidis ATCC 35547 assessed as effect on planktonic growth at 43.8 ug/ml after 20 hrs relative to control; assay type: functional
[29] = test system: Staphylococcus epidermidis; experiment: Antibacterial activity against Staphylococcus epidermidis ATCC 35547 assessed as effect on planktonic growth at 0.68 ug/ml after 20 hrs relative to control; assay type: functional
[30] = test system: Staphylococcus epidermidis; experiment: Antibacterial activity against Staphylococcus epidermidis ATCC 35547 assessed as effect on planktonic growth at 2.73 ug/ml after 20 hrs relative to control; assay type: functional
[31] = test system: Pseudomonas aeruginosa; experiment: Antibacterial activity against Pseudomonas aeruginosa ATCC 27853 assessed as effect on planktonic growth at 87.5 ug/ml after 20 hrs relative to control; assay type: functional
[32] = test system: Staphylococcus aureus; experiment: Antibacterial activity against Staphylococcus aureus ATCC 25923 assessed as effect on planktonic growth at 5.5 ug/ml after 20 hrs relative to control; assay type: functional
[33] = test system: Staphylococcus aureus; experiment: Antibacterial activity against Staphylococcus aureus ATCC 25923 assessed as effect on planktonic growth at 0.68 ug/ml after 20 hrs relative to control; assay type: functional
[34] = test system: Staphylococcus epidermidis; experiment: Antibacterial activity against Staphylococcus epidermidis ATCC 35547 assessed as effect on planktonic growth at 0.17 ug/ml after 20 hrs relative to control; assay type: functional
[35] = test system: Staphylococcus aureus; experiment: Antibacterial activity against Staphylococcus aureus ATCC 25923 assessed as effect on planktonic growth at 21.9 ug/ml after 20 hrs relative to control; assay type: functional
[36] = test system: Staphylococcus aureus; experiment: Antibacterial activity against Staphylococcus aureus ATCC 25923 assessed as effect on planktonic growth at 0.17 ug/ml after 20 hrs relative to control; assay type: functional
[37] = test system: Pseudomonas aeruginosa; experiment: Antibacterial activity against Pseudomonas aeruginosa ATCC 27853 assessed as effect on planktonic growth at 43.8 ug/ml after 20 hrs relative to control; assay type: functional
[38] = test system: Pseudomonas aeruginosa; experiment: Antibacterial activity against Pseudomonas aeruginosa ATCC 27853 assessed as effect on planktonic growth at 0.17 ug/ml after 20 hrs relative to control; assay type: functional
[39] = test system: Streptococcus mutans; experiment: Antibacterial activity against Streptococcus mutans ATCC 25175 assessed as effect on planktonic growth at 43.8 ug/ml after 20 hrs relative to control; assay type: functional
[40] = test system: Streptococcus mutans; experiment: Antibacterial activity against Streptococcus mutans ATCC 25175 assessed as effect on planktonic growth at 87.5 ug/ml after 20 hrs relative to control; assay type: functional
[41] = test system: Staphylococcus aureus; experiment: Antibacterial activity against Staphylococcus aureus ATCC 25923 assessed as effect on planktonic growth at 87.5 ug/ml after 20 hrs relative to control; assay type: functional
[42] = test system: Pseudomonas aeruginosa; experiment: Antibacterial activity against Pseudomonas aeruginosa ATCC 27853 assessed as effect on planktonic growth at 10.9 ug/ml after 20 hrs relative to control; assay type: functional
[43] = test system: Streptococcus mutans; experiment: Antibacterial activity against Streptococcus mutans ATCC 25175 assessed as effect on planktonic growth at 2.73 ug/ml after 20 hrs relative to control; assay type: functional

Q: How did the inhibition [1] turn out when `COc1ccc(C)cc1C1=C(Br)C(=O)N(CC(C)C)/C1=C\c1ccccc1Cl` was run?
A: Dose-dependent effect

Q: What about the IC50 ([1]; ATCC 27853, 20 h) of the same molecule?
A: 5.7 µg/mL (≈ 12.4 µM)

Q: What about the Activity [2] of the same molecule?
A: -6.6%

Q: What about the Activity [3] of the same molecule?
A: 17.8%

Q: And the Activity [4]?
A: 8.9%

Q: What about the Activity [5] of the same molecule?
A: 7.8%

Q: What about the Activity [6] of the same molecule?
A: -13.4%

Q: And the Activity [7]?
A: -7.7%

Q: What about the Activity [8] of the same molecule?
A: -0.4%

Q: And the Activity [9]?
A: 13.1%

Q: What about the Activity [10] of the same molecule?
A: -10.6%

Q: What about the Activity [11] of the same molecule?
A: -4.4%

Q: And the Activity [12]?
A: -6%

Q: And the Activity [13]?
A: 14.6%

Q: What about the Activity [14] of the same molecule?
A: -3.3%

Q: And the Activity [15]?
A: 8.9%

Q: What about the Activity [16] of the same molecule?
A: -5.5%

Q: What about the Activity [17] of the same molecule?
A: 65.8%

Q: What about the Activity [18] of the same molecule?
A: 3.6%

Q: What about the Activity [19] of the same molecule?
A: 3.3%

Q: What about the Activity [20] of the same molecule?
A: -13.8%

Q: What about the Activity [21] of the same molecule?
A: -13.4%

Q: What about the inhibition [22] of the same molecule?
A: Dose-dependent effect

Q: And the IC50 ([22]; ATCC 35547, 20 h)?
A: > 87.5 µg/mL

Q: What about the Activity [23] of the same molecule?
A: -1.4%

Q: And the Activity [24]?
A: -13.3%

Q: And the Activity [25]?
A: -2.1%

Q: What about the Activity [26] of the same molecule?
A: -4.6%

Q: What about the Activity [27] of the same molecule?
A: 31.7%

Q: And the Activity [28]?
A: 46.4%

Q: And the Activity [29]?
A: 3.4%

Q: And the Activity [30]?
A: -5.5%

Q: What about the Activity [31] of the same molecule?
A: 0.8%

Q: And the Activity [32]?
A: -12%

Q: And the Activity [33]?
A: -4.9%

Q: What about the Activity [34] of the same molecule?
A: 4%

Q: And the Activity [35]?
A: -6.3%

Q: What about the Activity [36] of the same molecule?
A: -4.2%

Q: What about the Activity [37] of the same molecule?
A: -11.1%

Q: What about the Activity [38] of the same molecule?
A: -1.9%

Q: And the Activity [39]?
A: 19.2%

Q: What about the Activity [40] of the same molecule?
A: 49.5%

Q: And the Activity [41]?
A: 33.8%

Q: What about the Activity [42] of the same molecule?
A: -13.8%

Q: What about the Activity [43] of the same molecule?
A: 3.9%
